This is an account of results in patent US20230023285A1, “PHARMACEUTICAL COMPOSITION FOR USE IN PREVENTING OR STOPPING METASTASES” (LOGICK ENERGETICS B.V., priority 2019, published 2023).

The subject of one experiment is EpCAM. Briefly: EpCAM gene expression by qPCR in MTΔECad cells. The following applies: qPCR normalized to GAPDH. Type of experiment: cell-based, mouse. As to the method:
(§1) For the stimulation of MTΔECad cells the following concentrations were used: PPS (5 μg/ml), Indomethacin (50 μM), en Pioglitazone (10 μM).
(§2) Untreated cell lines were employed as negative controls. As read-outs of adipogenesis, several approaches were tested: • 1. Oil red O staining by histochemistry. • 2. Nile Red staining by immuno-fluorescence (IF) • 3. RTqPCR (gene expression analysis) • Adiponectin (adipocyte marker) • EpCam (marker for epithelial cells) FIGS. 15a-d show stimulation schemes; FIGS. 15a-b according to prior art, and FIGS. 15c-15d according to the present invention.
(§3) Inventors studied the effect of treatment of MTΔECad cells with the different compounds and combinations on EpCAM expression as a marker for epithelial cells and Adiponectin expression as a marker for adipocytes.
(§4) Steps performed when measuring gene expression using real-time PCR.
(§5) RNA was first isolated and characterized for quantity and integrity. During a two-step reaction, cDNA was first synthesized and then used as a PCR template. The housekeeping gene GAPDH was used for normalizing the results. A normalization factor has been used for calculating each individual sample. Dividing the fluorescent data by its normalization factor produced the normalized data, which was followed by statistical analysis.
A general note: Quantitative PCR measures a nucleic acid by following its amplification.

Another experiment concerns Adiponectin. Description: Adiponectin gene expression by qPCR in MTΔECad cells. Type of experiment: cell-based, mouse. The following applies: qPCR normalized to GAPDH. The method, then:
as §1, §2, §3, §4, §5

On to `COc1ccc2c(c1)c(CC(=O)O)c(C)n2C(=O)c1ccc(Cl)cc1` [Indomethacin], for which the EpCAM gene expression result in the experiment with EpCAM is listed as “clearly stimulated EpCAM expression”. In addition, in the experiment with Adiponectin, the adiponectin gene expression entry is on record as “obviously stimulated adiponectin gene expression”.

In the case of Pentosan polysulphate [PPS], the EpCAM gene expression result with EpCAM is listed as “no significant effect”. Also, the adiponectin gene expression result in the experiment with Adiponectin is on record as “no effect”.
